According to patent publication US6492421B1, “Substituted phenylalanine type compounds which inhibit leukocyte adhesion mediated by VLA-4” (Athena Neurosciences, Inc., priority 1997, dated 2002):
Square brackets hold non-standard residues; d marks the D form. Side chains are listed from the residue outwards. Peptide text beside a SMILES is read from it. * marks the point of attachment. Phe(4-NH2) = Nc1ccc(C[C@H](N)C(=O)O)cc1; Tos = Cc1ccc(S(=O)(=O)*)cc1; Boc = CC(C)(C)OC(=O)*; Cam = NC(=O)C*

Test system: not given
Experiment: not given
Conditions: not given

Compound	melting point
Cc1ccc(S(=O)(=O)N2CCC[C@H]2C(=O)N[C@@H](Cc2ccc(OCCN(C(C)C)C(C)C)cc2)C(=O)O)cc1 [Example 23, N-(Toluene-4-sulfonyl)-L-prolyl-4-[2-(N,N-diisopropylamino)ethoxy]-L-phenylalanine]	121 to 124 °C
CN(C)CCCOc1ccc(C[C@H](NC(=O)[C@@H]2CCCN2S(=O)(=O)c2cccs2)C(=O)O)cc1 [Example 24, N-(Thiophene-2-sulfonyl)-L-prolyl-4-[3-(N,N-dimethylamino)propoxy]-L-phenylalanine]	> 200 °C
Cc1ccc(S(=O)(=O)N2CCC[C@H]2C(=O)N[C@@H](Cc2ccc(OCC(=O)NC(C)(C)C)cc2)C(=O)O)cc1 [Example 59, N-(Toluene-4-sulfonyl)-L-prolyl-4-[(N-tert-butylaminocarbonyl)methoxy]-L-phenylalanine]	88 to 89 °C
Cc1ccc(S(=O)(=O)N2CCC[C@H]2C(=O)N[C@@H](Cc2ccc(OCC(=O)O)cc2)C(=O)O)cc1 [Example 56, N-(Toluene-4-sulfonyl)-L-prolyl-4-[(carboxy)methoxy]-L-phenylalanine]	70 to 73 °C
Cc1ccc(S(=O)(=O)N2CCC[C@H]2C(=O)N[C@@H](Cc2ccc(OCC(N)=O)cc2)C(=O)O)cc1 [Example 58, N-(Toluene-4-sulfonyl)-L-prolyl-4-[(aminocarbonyl)methoxy]-L-phenylalanine] (Tos-Pro-Tyr(Cam)-OH)	195 to 196 °C
COC(=O)[C@H](Cc1ccc(N(CCCN(C)C)S(=O)(=O)C(F)(F)F)cc1)NC(=O)[C@@H]1CCCN1S(=O)(=O)c1ccc(C)cc1 [Example 16, N-(Toluene-4-sulfonyl)-L-prolyl-L-4-{N-[3-(N,N-dimethylamino)propyl]-N-[trifluoromethanesulfonyl]amino}-L-phenylalanine Methyl Ester]	45 to 55 °C
Cc1ccc(S(=O)(=O)N2CCC[C@H]2C(=O)N[C@@H](Cc2ccc(OCCN3CCCCC3)cc2)C(=O)O)cc1 [Example 46, N-(Toluene-4-sulfonyl)-L-prolyl-4-[2-(piperidin-1-yl)ethoxy]-L-phenylalanine]	102 to 106 °C
CCN(CC)CCOc1ccc(C[C@H](NC(=O)[C@@H]2CCCN2S(=O)(=O)c2ccc(C)cc2)C(=O)O)cc1 [Example 26, N-(Toluene-4-sulfonyl)-L-prolyl-4-[2-(N,N-diethylamino)ethoxy]-L-phenylalanine]	105 to 109 °C
CN(C)CCCOc1ccc(C[C@H](NC(=O)[C@@H]2CCCN2S(=O)(=O)c2cc(Cl)sc2Cl)C(=O)O)cc1 [Example 27, N-(2,5-Dichlorothiophene-3-sulfonyl)-L-prolyl-4-[3-(N,N-dimethylamino)propoxy]-L-phenylalanine]	> 200 °C
COC(=O)[C@H](Cc1ccc(OCCN2CCC(O)(c3ccccc3)CC2)cc1)NC(=O)[C@@H]1CCCN1S(=O)(=O)c1ccc(C)cc1	122 to 123 °C

Test system: Experimental Autoimmune (or Allergic) Encephalomyelitis (“EAE”)
Experiment: In vivo evaluation: Experimental Autoimmune Encephalomyelitis (EAE) model
Design: species or system rats or guinea pigs
Conditions: treatment began on Day 8; 10 mg/kg to 200 mg/kg, bid, for five days; SC, PO or IP

Compound	active in EAE model (delayed the onset of symptoms, e.g., clinical scores no greater than 2 or slowed body weight loss as compared to the control)
Cc1ccc(S(=O)(=O)N2CCC[C@H]2C(=O)N[C@@H](Cc2ccc(OCCCN(C)C)cc2)C(=O)O)cc1 [Example 18, N-(Toluene-4-sulfonyl)-L-prolyl-4-[3-(N,N-dimethylamino)propoxy]-L-phenylalanine]	active
N-(Toluene-4-sulfonyl)-L-(5,5-dimethyl)thiaprolyl-4-[2-(N,N-dimethylamino)ethoxy]-L-phenylalanine [Example 20]	active
Cc1ccc(S(=O)(=O)N2CCC[C@H]2C(=O)N[C@@H](Cc2ccc(NC(=O)[C@@H](C)NC(=O)OC(C)(C)C)cc2)C(=O)O)cc1 [Example 5, N-(Toluene-4-sulfonyl)-L-prolyl-4-[(N-tert-butoxylcarbonyl-D-alanyl)amino]-L-phenylalanine] (Tos-Pro-[Phe(4-NH2)]([dA-Boc])-OH)	active
Cc1ccc(S(=O)(=O)N2CCC[C@H]2C(=O)N[C@@H](Cc2ccc(-c3ccccc3C(=O)O)cc2)C(=O)O)cc1 [Example 12, N-(Toluene4-sulfonyl)-L-prolyl-4-[2-(carboxy)phenyl]-L-phenylalanine]	active
